According to patent US20150231109A1, “COMBINATIONS (CATECHINS AND METHOTREXATE) FOR USE IN THE TREATMENT OF MELANOMAS” (UNIVERSIDAD DE MURCIA, priority 2012, published 2015):

Assays:
[1] = system: IGR39 cells; experiment: Matrigel Boyden chamber invasion assay, IGR39; assay type: cell-based; settings: IGR39, MTX 72 h, 1 μM
Description: FIGS. 1A-J. Methotrexate up-regulates the expression of MITF. A, The MITF rheostat, and the two-step strategy for melanoma therapy: Drug A induces MITF, driving cells to be sensitive to Drug B. B, MTX (1 μM) increases MITF mRNA determined using quantitative and conventional RT-PCR from indicated cell lines. […] C, MTX (1 μM) induces MITF protein assayed by western blotting (WB) (*P<0.05). D, Immunofluorescence of control or MTX-treated (3 h) 501 MEL cells using anti-MITF and DAPI. E, Matrigel assay of control and MTX-treated SKMEL-28 cells (48 h, 1 μM) and IGR39 (72 h, 1 μM) cells. […] Scale bar refers to all panels. F, Chromatin immunoprecipitation on TYR and Pmel17 genes of control and MTX-treated (4 h, 1 μM) SK-MEL-28 cells with qRT-PCR after immunoprecipitation with IgG, or MITF and HDAC3 antibodies. Error bars indicate standard deviations of triplicates; experiment reproduced four times with similar results. G, Scanning electron micrographs of control and MTX-treated (1 μM, 24 h) SK-MEL-28 cells. H, Semiquantitative RT PCR of TYR, TYRP1, Pmel17, MART1, and Rab27a mRNA. […]
Invasion assays were performed using a cell invasion assay kit (BD Bioscience). […] The invading cells were stained and quantified measuring the surface occupied by stained cells with a cell counter plug-in of the Image J software.

[2] = Toxicology in non-tumor inoculated C57BL/6 mice; assay type: in vivo, mouse
Description: FIGS. 4A-N. MTX and TMECG combination therapy is effective in vivo. A, A375 melanoma cells were included in a human reconstructed skin model and were treated with MTX (1 μM) and/or TMECG (10 μM) for 14 days. B, B16/F10 melanoma cells were injected subcutaneously into C57/B16 mice. Images show tumor size 17 days post-injection in control and treated mice. […] C, Luciferase imaging of control and MTX/TMECG-treated mice 12 days post-tumor cell injection. Beetle luciferin (120 mg/kg of mouse) was injected intraperitoneally. The values (means±s.d.) are representative of three independent experiments. *P=0.007; **P=0.002. D, Bioluminescent imaging of livers at 14 days post-intrasplenic injection of B16-F10-luc-G5 cells from untreated and MTX/TMECG-treated mice are shown. E, Quantification of macrometastases (0-10, 10-25 or >25) after treatment with vehicle (control), MTX (1 mg/kg/day), and/or TMECG (50 mg/kg/day). F, Photomicrograph of H&E-stained, 4 μm formalin-fixed, paraffin-embedded liver sections from control (DMSO) and MTX/TMECG-treated mice (1 and 50 mg/kg/day, respectively) (5× magnification). G, MTX activation of MITF and tyrosinase activates the melanoma-specific antifolate activity of TMECG, leading to depletion of cellular dTTP and apoptosis. H, Sections stained with hematoxylin and eosin show the effect of MTX/TMECG on B16/F10 primary splenic tumors. Xenograft tumors treated with DMSO (vehicle) or MTX/TMECG (1 mg/kg/day and 50 mg/kg/day, respectively) over 14-days. […] Representative images taken from two independent experiments (n=5 for each experiment). Scale bar=200 μm and is applicable to both panels. I, B16/F10 melanoma cells, expressing a luciferase reporter, were injected subcutaneously to mice. Mice were divided in two groups (n=7) and treated with vehicle (DMSO) or MTX/TMECG (1 mg/kg/day and 10 mg/kg/day, respectively) over 21-days. Then, tumors were pooled and dissociated. B16/F10 cells extracted from tumors were examined for their sensitivity to the MTX/TMECG combination (1 μM and 10 μM, respectively) using quantification of the luminescence signal (left panel). J, The histogram represents the number of B16/F10-luc2 cells remaining after 3 days of MTX/TMECG treatment with respect to vehicle treated controls (100%). […] K, The morphology of tumor dissociated B16/F10-luc2 cells before and after of MTX/TMECG treatment. Scale bar refers to all panels. L, Histograms represent the number of copies of TYR mRNA for every 1×10^3 copies of β-actin±SD of three independent experiments. […]
To explore the toxicity of TMECG and MTX, these agents (at indicated concentrations) were administrated intradermally to the back of non-tumor inoculated female C57BL/6 mice (n=10), and body weight monitored every other day. […]

For `CN(Cc1cnc2nc(N)nc(N)c2n1)c1ccc(C(=O)N[C@@H](CCC(=O)O)C(=O)O)cc1` [MTX, methotrexate], the invasiveness [1] was “eliminated invasiveness”, the mouse body weight ([2]; MTX 10 mg/kg/day) was “induced some weight loss” and the mouse body weight ([2]; MTX alone 1 mg/Kg/day) was “no effect”.
